According to patent US12692238B2, “Substituted pyridazinone herbicides” (FMC CORPORATION, priority 2020, dated 2026):

Legend:
Format in all cases: in vivo
[1] = tested on: barnyardgrass (Echinochloa crus-galli); assay: Test A preemergence, barnyardgrass; details: 10 days
How it was run: (§1)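 Seeds sown in loam–sand blend received a directed soil spray preemergence; postemergence plants at 2 to 10 cm, one- to two-leaf stage, were sprayed. Compounds were formulated in non-phytotoxic solvent with surfactant. After 10 days in greenhouse, injury was rated visually versus untreated controls, 0 (no effect) to 100 (complete control).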

[2] = tested on: ragweed (common ragweed, Ambrosia artemisiifolia); assay: Test A preemergence, ragweed; details: Ambrosia artemisiifolia, pre-emergence, 240 h, 0 to 100 scale, 10 days, read-out: Plant response rating, Ragweed; for pest or weed control at 31 g/ha: 31 g ai/ha; for pest or weed control at 125 g/ha: 125 g ai/ha
How it was run: as §1

[3] = tested on: ryegrass, Italian (Italian ryegrass, Lolium multiflorum); assay: Test A preemergence, ryegrass, Italian; details: Lolium multiflorum, pre-emergence, 240 h, 0 to 100 scale, 10 days, read-out: Plant response rating, Ryegrass, Italian; for pest or weed control at 31 g/ha: 31 g ai/ha; for pest or weed control at 125 g/ha: 125 g ai/ha
How it was run: as §1

[4] = tested on: barnyardgrass (Echinochloa crus-galli); assay: Test A postemergence, barnyardgrass; details: Postemergence, 0 to 100 scale, 10 days
How it was run: as §1

[5] = tested on: blackgrass (Alopecurus myosuroides); assay: Test A postemergence, blackgrass; details: Alopecurus myosuroides, post-emergence, 240 h, Postemergence, 0 to 100 scale, 10 days, read-out: Plant response rating, Blackgrass; for pest or weed control at 31 g/ha: 31 g ai/ha; for pest or weed control at 125 g/ha: 125 g ai/ha
How it was run: as §1

[6] = tested on: corn (Zea mays); assay: Test A postemergence, corn; details: Zea mays, post-emergence, 240 h, Postemergence, 0 to 100 scale, 10 days; for Corn plant response rating (crop injury, 0 = no effect, 100 = complete kill) at 31 g/ha: 31 g ai/ha; for Corn plant response rating (crop injury, 0 = no effect, 100 = complete kill) at 125 g/ha: 125 g ai/ha
How it was run: as §1

[7] = tested on: kochia (Bassia scoparia); assay: Test A postemergence, kochia; details: Bassia scoparia, post-emergence, 240 h, 10 days, read-out: Plant response rating, Kochia; for pest or weed control at 31 g/ha: 31 g ai/ha, postemergence, 0 to 100 scale (0 no effect, 100 complete control); for pest or weed control at 125 g/ha: Postemergence, 125 g ai/ha, 0 to 100 scale
How it was run: as §1

[8] = tested on: redroot pigweed (Amaranthus retroflexus); assay: Test A postemergence, redroot pigweed; details: 10 days
How it was run: as §1

[9] = tested on: ragweed (common ragweed, Ambrosia artemisiifolia); assay: Test A postemergence, ragweed; details: Ambrosia artemisiifolia, post-emergence, 240 h, 10 days, read-out: Plant response rating, Ragweed; for pest or weed control at 31 g/ha: 31 g ai/ha, postemergence, 0 to 100 scale (0 no effect, 100 complete control); for pest or weed control at 125 g/ha: Postemergence, 125 g ai/ha, 0 to 100 scale
How it was run: as §1

[10] = tested on: ryegrass, Italian (Italian ryegrass, Lolium multiflorum); assay: Test A postemergence, ryegrass, Italian; details: Lolium multiflorum, post-emergence, 240 h, 10 days, read-out: Plant response rating, Ryegrass, Italian; for pest or weed control at 31 g/ha: 31 g ai/ha, postemergence, 0 to 100 scale (0 no effect, 100 complete control); for pest or weed control at 125 g/ha: Postemergence, 125 g ai/ha, 0 to 100 scale
How it was run: as §1

[11] = tested on: wheat (Triticum aestivum); assay: Test A postemergence, wheat; details: Triticum aestivum, post-emergence, 240 h, 10 days, read-out: Plant response rating, Wheat; for plant injury at 31 g/ha: 31 g ai/ha, postemergence, 0 to 100 scale (0 no effect, 100 complete control); for plant injury at 125 g/ha: Postemergence, 125 g ai/ha, 0 to 100 scale
How it was run: as §1

[12] = tested on: galium (catchweed bedstraw, Galium aparine); assay: Test A postemergence, galium; details: Galium, post-emergence, 240 h, 10 days, read-out: Plant response rating, Galium; for pest or weed control at 31 g/ha: 31 g ai/ha, postemergence, 0 to 100 scale (0 no effect, 100 complete control); for pest or weed control at 125 g/ha: Postemergence, 125 g ai/ha, 0 to 100 scale
How it was run: as §1

[13] = tested on: barnyardgrass (Echinochloa crus-galli); assay: Test B flooded paddy test, barnyardgrass; details: Echinochloa crus-galli; 250 g ai/ha, Flood; visually evaluated after 10 to 14 days; read-out: Plant response rating, Barnyardgrass (0 to 100 scale where 0 is no effect and 100 is complete control)
How it was run: (§2)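 Water-applied treatment of 2-leaf plants in pots kept flooded at 3 cm. Visual control rating (0–100) against untreated plants after 10–14 greenhouse days.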

[14] = tested on: ducksalad (Heteranthera limosa); assay: Test B flooded paddy test, ducksalad; details: Heteranthera limosa; 250 g ai/ha, Flood; visually evaluated after 10 to 14 days; read-out: Plant response rating, Ducksalad (0 to 100 scale where 0 is no effect and 100 is complete control)
How it was run: as §2

[15] = tested on: rice (Oryza sativa); assay: Test B flooded paddy test, rice; details: Oryza sativa; 250 g ai/ha, Flood; visually evaluated after 10 to 14 days; read-out: Plant response rating, Rice (0 to 100 scale where 0 is no effect and 100 is complete control)
How it was run: as §2

[16] = tested on: sedge, umbrella (small-flower umbrella sedge, Cyperus difformis); assay: Test B flooded paddy test, sedge, umbrella; details: Cyperus difformis; 250 g ai/ha, Flood; visually evaluated after 10 to 14 days; read-out: Plant response rating, Sedge, Umbrella (0 to 100 scale where 0 is no effect and 100 is complete control)
How it was run: as §2

[17] = 125 g ai/ha, 0 to 100 scale (0 no effect, 100 complete control)
[18] = 31 g ai/ha, postemergence, 0 to 100 scale (0 no effect, 100 complete control)
[19] = Postemergence, 125 g ai/ha, 0 to 100 scale

Structure (SMILES)	Plant response rating, Barnyardgrass ([1]; 31 g ai/ha, 0 to 100 scale)	Plant response rating, Barnyardgrass [1, 17]	pest or weed control at 31 g/ha [2]	pest or weed control at 125 g/ha [2]	pest or weed control at 31 g/ha [3]	pest or weed control at 125 g/ha [3]	Plant response rating, Barnyardgrass ([4]; 31 g ai/ha)	Plant response rating, Barnyardgrass ([4]; 125 g ai/ha)	pest or weed control at 31 g/ha [5]	pest or weed control at 125 g/ha [5]	Corn plant response rating (crop injury, 0 = no effect, 100 = complete kill) at 31 g/ha [6]	Corn plant response rating (crop injury, 0 = no effect, 100 = complete kill) at 125 g/ha [6]	pest or weed control at 31 g/ha [7]	pest or weed control at 125 g/ha [7]	Plant response rating, Pigweed, Redroot [8, 18]	Plant response rating, Pigweed, Redroot [8, 19]	pest or weed control at 31 g/ha [9]	pest or weed control at 125 g/ha [9]	pest or weed control at 31 g/ha [10]	pest or weed control at 125 g/ha [10]	other results
CC(=O)OCOc1c(C)nn(C)c(=O)c1-c1c(Br)sc2ccc(F)cc12 [Compound 2, 5-[(acetyloxy)methoxy]-4-(2-bromo-5-fluorobenzo[b]thien-3-yl)-2,6-dimethyl-3(2H)-pyridazinone]	0	0	70%	90%	70%	100%	50	60	30%	30%	0%	30%	70%	80%	80	90	70%	100%	80%	100%	plant injury at 31 g/ha [11]: 0%; plant injury at 125 g/ha [11]: 40%; pest or weed control at 31 g/ha [12]: 90%; pest or weed control at 125 g/ha [12]: 100%; pest or weed control at 250 g/ha [13]: 0%; pest or weed control at 250 g/ha [14]: 20%; plant injury at 250 g/ha [15]: 0%; pest or weed control at 250 g/ha [16]: 45%
CC(=O)OCOc1c(Cl)nn(C)c(=O)c1-c1c(C)ccc2ccc(C)cc12 [Compound 3, 5-[(Acetyloxy)methoxy]-6-chloro-4-(2,7-dimethyl-1-naphthalenyl)-2-methyl-3(2H)-pyridazinone]	60	100	90%	90%	20%	100%	60	90	10%	30%	0%	20%	60%	80%	100	100	90%	100%	80%	100%	plant injury at 31 g/ha [11]: 0%; plant injury at 125 g/ha [11]: 20%; pest or weed control at 31 g/ha [12]: 100%; pest or weed control at 125 g/ha [12]: 100%; pest or weed control at 250 g/ha [13]: 98%; pest or weed control at 250 g/ha [14]: 95%; plant injury at 250 g/ha [15]: 0%; pest or weed control at 250 g/ha [16]: 98%
